In patent US11642332B2, “(2R,4R)-5-(5′-chloro-2′-fluorobiphenyl-4-yl)-2-hydroxy-4-[(5-methyloxazole-2-carbonyl)amino]pentanoic acid” (THERAVANCE BIOPHARMA R&D IP, LLC, priority 2015, dated 2023):

How the values were obtained:
[1] = target: T1, human neprilysin (EC 3.4.24.11; NEP) (Homo sapiens, UniProt P08473); assay: In vitro assay for the quantitation of inhibitor potency at human NEP; assay type: biochemical; settings: recombinant human NEP, fluorogenic peptide substrate 10 μM, 37° C.; read-out: pKi at human NEP (converted)
T1 construct: purchased R&D Systems 1182-ZN
Method: The inhibitory activity at human neprilysin (EC 3.4.24.11; NEP) was determined as follows.
Recombinant human NEP was obtained commercially (R&D Systems, Minneapolis, Minn., catalog number 1182-ZN). The fluorogenic peptide substrate Mca-D-Arg-Arg-Leu-Dap-(Dnp)-OH (Medeiros et al. (1997) Braz. J. Med. Biol. Res. 30:1157-62; Anaspec, San Jose, Calif.) was used.
The assay was performed in 384-well white opaque plates at 37° C. using the fluorogenic peptide substrate at a concentration of 10 μM in Assay Buffer (50 mM HEPES, pH 7.5, 100 mM NaCl, 0.01% polyethylene glycol sorbitan monolaurate (Tween-20), 10 μM ZnSO4).
Test compounds were assayed over the range of concentrations from 10 μM to 20 pM. Test compounds were added to the enzyme and incubated for 30 minute at 37° C. prior to initiating the reaction by the addition of substrate. Reactions were terminated after 20 minutes of incubation at 37° C. by the addition of glacial acetic acid to a final concentration of 3.6% (v/v).
Plates were read on a fluorometer with excitation and emission wavelengths set to […]. Inhibition constants were obtained by nonlinear regression of the data using the equation (GraphPad Software, Inc., San Diego, Calif.): v=v0/[1+(I/K′)] where v is the reaction rate, v0 is the uninhibited reaction rate, I is the inhibitor concentration and K′ is the apparent inhibition constant.
The compounds were tested in this assay and found to have pKi values at human NEP as follows.

[2] = IV/PO pharmacokinetic study of Compound 1 in monkeys; assay type: in vivo; settings: male, cynomolgus monkey, plasma, 1 mg/kg; for AUC(0-t): read-out: AUClast Mean
Method: A monkey PK study was performed with an appropriate mass of compound 1 in volume of vehicle (e.g., 5% sodium bicarbonate, 5% dextrose in H2O, pH 7.4, for oral and PEG200:EtOH:Water (40:10:50), pH 7.0, filtered through a […] PDVF syringe for IV) such that the final concentration was dosed at 0.5 mL/kg (IV) or 2.0 mL/kg (PO).
Male cynomologus monkeys (3 per route) housed at Xenometrics (Stilwell, Kans.) received an IV or PO dose of compound 1 at 1 mg/kg. Animals administered IV doses had access to food ad libitum and those administered PO doses were fasted overnight and received food approximately 4 hours after dose administration. Blood samples were collected from each animal at each time point (pre-dose, 0.083 hour, 0.25 hour, 0.5 hour, 1 hour, 2 hours, 4 hours, 6 hours, 8 hours, 12 hours, and 24 hours) via the cephalic, femoral, or sphenous vein through 48 hours. All samples were collected into K2EDTA tubes and placed on ice. Samples were processed to plasma by centrifugation (3200 rpm, 10 minutes, 5° C.), and acidified with a final concentration of 2% acetic acid. Aliquots of plasma were transferred to a 96-well plate tubes and stored frozen (−70° C.) prior to bioanalysis. Plasma concentrations of compound 1 were determined by LC/MS/MS. Plasma study samples were vortexed and placed in a 96-well plate. The samples were extracted with 200 μL of 0.2% formic acid in acetonitrile with an internal standard. The extract was centrifuged for 10 minutes at 3700 RPM and supernatant was mixed with 0.2% formic acid in water. Samples (15 μL) were injected on a Thermo (C18 50×2.1 mm) column with a flow rate of 0.3 mL/min. […] Pharmacokinetic parameters of compound 1 were determined by non-compartmental analysis (Model 201 and Model 200 for IV and PO administration, respectively) using Phoenix WinNonlin Version 6.3 (Certara, Sunnyvale, Calif.) and using individual plasma concentration time profiles from 3 animals.
Plasma clearance was determined from the intravenous arm of the study, and represents the rate at which plasma is cleared of drug. […]

[3] = IV/PO pharmacokinetic study in rats; assay type: in vivo, male Sprague-Dawley rats; design: AUC(0-t): concentration or dose not given beside the values; settings: rat; for AUC(0-t): read-out: AUClast Mean
Method: Each rat or dog PK study began with formulation of the test compound. Appropriate masses of each test compound were added into a volume of vehicle (e.g. 5% sodium bicarbonate, 5% dextrose in H2O) such that the final concentration of each compound was appropriate to be dosed at 2 mL/kg. Although a homogenous suspension were acceptable for oral dosing, intravenous dosing solutions were sterile-filtered (0.2 μm) prior to dosing to ensure no particulates were administered.
In the rat study, pre-cannulated male Sprague-Dawley rats (3 per route) between 8 and 10 weeks of age were obtained from Harlan Laboratories (Indianapolis, Ind.). Rats received either a single oral gavage or a single intravenous (via lateral tail vein) dose of the dosing solution. The final dose was typically 0.5-3 mg/kg. Serial blood samples were harvested via the cannula implanted in the jugular vein at 3 minutes, 15 minutes, 30 minutes, 1 hour, 2 hours, 4 hours, 6 hours, and 24 hours post-dose. Sampling was performed either manually or using automated blood samplers. Samples were collected into microtainer tubes containing EDTA as the anticoagulant and were processed to plasma by refrigerated centrifugation.
Plasma samples were extracted with 3 volumes of MeCN containing a suitable internal standard. Extracts were reconstituted into 3 volumes of water containing 1% formic acid, and analyzed via HPLC-coupled MS/MS. Plasma concentration-time data were analyzed using the Phoenix software (Pharsight Corp., St. Louis, Mo.) to calculate pharmacokinetic parameters.
Plasma clearance was determined from the intravenous arm of the study, and represents the rate at which plasma is cleared of drug. It is equal to the dose divided by the area under the plasma concentration-time curve. In addition to plasma clearance, it is also essential for an orally administered drug to reach efficacious systemic levels following oral delivery. Oral bioavailability is a measurement of plasma exposures following oral administration relative to exposures following intravenous administration.

T1 sequence (P08473 52-750 limits assumed): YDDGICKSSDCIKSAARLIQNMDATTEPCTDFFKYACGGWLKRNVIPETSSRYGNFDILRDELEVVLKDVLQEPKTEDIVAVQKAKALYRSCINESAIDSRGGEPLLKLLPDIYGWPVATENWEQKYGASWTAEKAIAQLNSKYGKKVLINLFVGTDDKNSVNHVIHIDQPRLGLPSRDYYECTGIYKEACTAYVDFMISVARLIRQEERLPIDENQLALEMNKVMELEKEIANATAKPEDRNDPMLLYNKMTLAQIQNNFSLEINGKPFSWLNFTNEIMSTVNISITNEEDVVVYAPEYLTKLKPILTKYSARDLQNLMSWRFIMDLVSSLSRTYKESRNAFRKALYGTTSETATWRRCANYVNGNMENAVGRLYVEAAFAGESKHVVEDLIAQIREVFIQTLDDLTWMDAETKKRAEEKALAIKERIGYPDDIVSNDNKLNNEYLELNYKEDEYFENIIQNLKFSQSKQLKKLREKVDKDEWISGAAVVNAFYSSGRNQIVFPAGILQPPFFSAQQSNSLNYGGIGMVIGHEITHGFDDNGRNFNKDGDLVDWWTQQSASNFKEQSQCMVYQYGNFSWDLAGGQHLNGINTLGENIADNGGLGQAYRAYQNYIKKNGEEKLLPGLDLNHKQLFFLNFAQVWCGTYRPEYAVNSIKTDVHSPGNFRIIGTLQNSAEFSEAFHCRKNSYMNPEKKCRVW

Cc1cnc(C(=O)N[C@H](Cc2ccc(-c3cc(Cl)ccc3F)cc2)C[C@@H](O)C(=O)O)o1 [Compound 1, (2R,4R)-5-(5′-Chloro-2′-fluorobiphenyl-4-yl)-2-hydroxy-4-[(5-methyloxazole-2-carbonyl)amino]pentanoic Acid]
Ki [1]: 0.2 nM | AUC(0-t) ([2]; IV): 2780 ng·h/mL | AUC(0-t) ([2]; PO): 1660 ng·h/mL | bioavailability ([2]; oral, PO vs IV): ~60% | AUC(0-t) ([3]; male, Sprague-Dawley, plasma, IV): 610 ng·h/mL | bioavailability ([3]; male, Sprague-Dawley, plasma, PO vs IV AUClast): 67% | AUC(0-t) ([3]; male, Sprague-Dawley, plasma, PO): 400 ng·h/mL | CLlast Mean ([3]; IV, dose divided by AUClast): 0.83 L/h/kg
